pIC50: −log10 of the molar value.
These molecules were tested against PD-L1 His protein / PD-1 Fc protein (Homo sapiens, UniProt Q9NZQ7) (assay: HTRF Assay (PD-1/PD-L1 interaction)). Settings: PD-L1 His 6 nM, PD-1 Fc 6 nM.
Type: binding
Outline: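 Compounds tested from 20 μM down to 0.001 μM (3-fold) against 6 nM PD-L1 His and 6 nM PD-1 Fc, 15 min room temperature incubation. Detection after 1 h at room temperature with Tb cryptate anti-6HIS and XL665 anti-human IgG reagents (mixture at 0.35 nM and 6.7 nM), HTRF signal.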

Sequence of PD-L1 His protein / PD-1 Fc protein (Q9NZQ7 19-238 limits assumed): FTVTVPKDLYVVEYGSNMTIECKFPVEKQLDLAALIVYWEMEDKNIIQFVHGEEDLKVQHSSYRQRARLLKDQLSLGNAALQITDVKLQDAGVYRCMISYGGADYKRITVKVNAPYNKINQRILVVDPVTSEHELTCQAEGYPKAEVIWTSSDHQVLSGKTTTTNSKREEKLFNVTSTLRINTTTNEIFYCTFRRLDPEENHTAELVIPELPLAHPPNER

Row | Structure (SMILES) | pIC50
1 | COc1nc(-c2cccc(-c3cccc(-c4ccc5nc(CNC[C@@H]6CCC(=O)N6)cn5n4)c3Cl)c2Cl)ccc1CNC[C@@H]1CCC(=O)N1 [Example 338, (5S)-5-[[[6-[2-Chloro-3-[2-chloro-3-[2-[[[(2S)-5-oxopyrrolidin-2-yl]methylamino]methyl]imidazo[1,2-b]pyridazin-6-yl]phenyl]phenyl]-2-methoxy-3-pyridyl]methylamino]methyl]pyrrolidin-2-one] | 9.52
2 | COc1nc(-c2cccc(-c3cccc(-c4ccc5nc(CN(C)CCO)cn5n4)c3Cl)c2Cl)ccc1CN(C)CCO [Example 339, 2-[[6-[2-Chloro-3-[2-chloro-3-[2-[[2-hydroxyethyl(methyl)amino]methyl]imidazo[1,2-b]pyridazin-6-yl]phenyl]phenyl]-2-methoxy-3-pyridyl]methyl-methyl-amino]etanol] | 7.59
3 | COc1nc(-c2cccc(-c3cccc(-c4ccc5nc(CNC[C@H](C)O)cn5n4)c3Cl)c2Cl)ccc1CNC[C@H](C)O [Example 340, (2S)-1-[[6-[2-Chloro-3-[2-chloro-3-[2-[[[(2S)-2-hydroxypropyl]amino]methyl]imidazo[1,2-b]pyridazin-6-yl]phenyl]phenyl]-2-methoxy-3-pyridyl]methylamino]propan-2-ol] | 8.46
4 | CNC(=O)C(C)(C)NCc1cc(=O)n2ccc(-c3cccc(-c4cccc(-c5ccc(CNC[C@@H]6CCC(=O)N6)c(OC)n5)c4Cl)c3Cl)cc2n1 [Example 341, (S)-2-(((8-(2,2′-Dichloro-3′-(6-methoxy-5-((((5-oxopyrrolidin-2-yl)methyl)amino)methyl)pyridin-2-yl)-[1,1′-biphenyl]-3-yl)-4-oxo-4H-pyrido[1,2-a]pyrimidin-2-yl)methyl)amino)-N,2-dimethylpropanamide] | 10.00
5 | COc1nc(-c2cccc(-c3cccc(-c4ccn5c(=O)cc(CN6C[C@@H](O)CC6=O)nc5c4)c3Cl)c2Cl)ccc1CNC[C@@H]1CCC(=O)N1 [Example 342, 8-(2,2′-Dichloro-3′-(6-methoxy-5-(((((S)-5-oxopyrrolidin-2-yl)methyl)amino)methyl)pyridin-2-yl)-[1,1′-biphenyl]-3-yl)-2-(((S)-4-hydroxy-2-oxopyrrolidin-1-yl)methyl)-4H-pyrido[1,2-a]pyrimidin-4-one] | 10.00
6 | COC(=O)C1CN(Cc2cc(=O)n3ccc(-c4cccc(-c5cccc(-c6ccc(CNC[C@@H]7CCC(=O)N7)c(OC)n6)c5Cl)c4Cl)cc3n2)C1 [Example 343, (S)-Methyl 1-((8-(2,2′-dichloro-3′-(6-methoxy-5-((((5-oxopyrrolidin-2-yl)methyl)amino)methyl)pyridin-2-yl)-[1,1′-biphenyl]-3-yl)-4-oxo-4H-pyrido[1,2-a]pyrimidin-2-yl)methyl) azetidine-3-carboxylate] | 10.00
7 | COc1nc(-c2cccc(-c3cccc(-c4ccc5c(c4)CCCNC5)c3Cl)c2Cl)ccc1CNC[C@@H]1CCC(=O)N1 [Example 344, (S)-5-((((6-(2,2′-Dichloro-3′-(2,3,4,5-tetrahydro-1H-benzo[c]azepin-7-yl)-[1,1′-biphenyl]-3-yl)-2-methoxypyridin-3-yl)methyl)amino)methyl)pyrrolidin-2-one] | 6.24
8 | COc1nc(-c2cccc(-c3cccc(-c4ccn5c(=O)c(CNCC(C)(C)OC)cnc5c4)c3Cl)c2Cl)ccc1CNC[C@@H]1CCC(=O)N1 [Example 345, (S)-8-(2,2′-Dichloro-3′-(6-methoxy-5-((((5-oxopyrrolidin-2-yl)methyl)amino)methyl)pyridin-2-yl)-[1,1′-biphenyl]-3-yl)-3-(((2-methoxy-2-methylpropyl)amino)methyl)-4H-pyrido[1,2-a]pyrimidin-4-one] | 7.38
9 | COc1nc(-c2cccc(-c3cccc(-c4ccn5c(=O)c(CN6CC7(CC(O)C7)C6)cnc5c4)c3Cl)c2Cl)ccc1CNC[C@@H]1CCC(=O)N1 [Example 346, (S)-8-(2,2′-Dichloro-3′-(6-methoxy-5-((((5-oxopyrrolidin-2-yl)methyl)amino)methyl)pyridin-2-yl)-[1,1′-biphenyl]-3-yl)-3-((6-hydroxy-2-azaspiro[3.3]heptan-2-yl)methyl)-4H-pyrido[1,2-a]pyrimidin-4-one] | 5.89
10 | COc1nc(-c2cccc(-c3cccc(-c4ccn5c(=O)c(CN6C[C@@H](O)[C@H](O)C6)cnc5c4)c3Cl)c2Cl)ccc1CNC[C@@H]1CCC(=O)N1 [Example 347, 8-(2,2′-Dichloro-3′-(6-methoxy-5-(((((S)-5-oxopyrrolidin-2-yl)methyl)amino)methyl)pyridin-2-yl)-[1,1′-biphenyl]-3-yl)-3-(((3R,4R)-3,4-dihydroxypyrrolidin-1-yl)methyl)-4H-pyrido[1,2-a]pyrimidin-4-one] | 6.28
11 | COc1nc(-c2cccc(-c3cccc(-c4ccn5c(=O)c(CN[C@H]6C[C@](C)(O)C6)c(OC)nc5c4)c3Cl)c2Cl)ccc1CNC[C@@H]1CCC(=O)N1 [Example 348, 8-(2,2′-Dichloro-3′-(6-methoxy-5-(((((S)-5-oxopyrrolidin-2-yl)methyl)amino)methyl)pyridin-2-yl)-[1,1′-biphenyl]-3-yl)-3-((((1r,3r)-3-hydroxy-3-methylcyclobutyl)amino)methyl)-2-methoxy-4H-pyrido[1,2-a]pyrimidin-4-one] | 8.66
12 | CNC(=O)C1(NCc2cc(=O)n3ccc(-c4cccc(-c5cccc(-c6ccc(CNC[C@@H]7CCC(=O)N7)c(OC)n6)c5Cl)c4Cl)cc3n2)CC1 [Example 349, (S)-1-(((8-(2,2′-Dichloro-3′-(6-methoxy-5-((((5-oxopyrrolidin-2-yl)methyl)amino)methyl)pyridin-2-yl)-[1,1′-biphenyl]-3-yl)-4-oxo-4H-pyrido[1,2-a]pyrimidin-2-yl)methyl)amino)-N-methylcyclopropanecarboxamide] | 9.70
13 | COc1nc(-c2cccc(-c3cccc(-c4cc5c(=O)n(C)c(CNC[C@H](C)O)nn5c4)c3Cl)c2Cl)ccc1CNC[C@@H]1CCC(=O)N1 [Example 350, 6-(2,2′-Dichloro-3′-(6-methoxy-5-(((((S)-5-oxopyrrolidin-2-yl)methyl)amino)methyl)pyridin-2-yl)-[1,1′-biphenyl]-3-yl)-2-((((S)-2-hydroxypropyl)amino)methyl)-3-methylpyrrolo[2,1-f][1,2,4]triazin-4(3H)-one] | 10.00
14 | COc1nc(-c2cccc(-c3cccc(-c4cc5c(=O)n(C)c(CNCCO)nn5c4)c3Cl)c2Cl)ccc1CNC[C@@H]1CCC(=O)N1 [Example 351, (S)-6-(2,2′-Dichloro-3′-(6-methoxy-5-((((5-oxopyrrolidin-2-yl)methyl)amino)methyl)pyridin-2-yl)-[1,1′-biphenyl]-3-yl)-2-(((2-hydroxyethyl)amino)methyl)-3-methylpyrrolo[2,1-f][1,2,4]triazin-4(3H)-one] | 6.70
15 | COc1nc(-c2cccc(-c3cccc(-c4ccc5nc(CNCCO)cn5n4)c3Cl)c2Cl)ccc1CNC[C@@H]1CCC(=O)N1 [Example 352, (5S)-5-[[[6-[2-Chloro-3-[2-chloro-3-[2-[(2-hydroxyethylamino)methyl]imidazo[1,2-b]pyridazin-6-yl]phenyl]phenyl]-2-methoxy-3-pyridyl]methylamino]methyl]pyrrolidin-2-one] | 9.30
16 | COc1nc(-c2cccc(-c3cccc(-c4ccc5nc(CNC[C@H](C)O)cn5n4)c3Cl)c2Cl)ccc1CNC[C@@H]1CCC(=O)N1 [Example 354, (5S)-5-[[[6-[2-Chloro-3-[2-chloro-3-[2-[[[(2S)-2-hydroxypropyl]amino]methyl]imidazo[1,2-b]pyridazin-6-yl]phenyl]phenyl]-2-methoxy-3-pyridyl]methylamino]methyl]pyrrolidin-2-one] | 9.10
17 | COc1nc(-c2cccc(-c3cccc(-c4ccc5nc(CNC[C@@H](O)CC(=O)N(C)C)cn5n4)c3Cl)c2Cl)ccc1CNC[C@@H]1CCC(=O)N1 [Example 355, (3S)-4-[[6-[2-Chloro-3-[2-chloro-3-[6-methoxy-5-[[[(2S)-5-oxopyrrolidin-2-yl]methylamino]methyl]-2-pyridyl]phenyl]phenyl]imidazo[1,2-b]pyridazin-2-yl]methylamino]-3-hydroxy-N,N-dimethyl-butanamide] | 10.00
18 | COc1nc(-c2cccc(-c3cccc(-c4ccc5nc(CNC[C@@H]6CCC(=O)N6)cn5c4)c3Cl)c2Cl)ccc1CNC[C@@H]1CCC(=O)N1 [Example 356, (5S)-5-[[[6-[2-Chloro-3-[2-chloro-3-[2-[[[(2S)-5-oxopyrrolidin-2-yl]methylamino]methyl]imidazo[1,2-a]pyridin-6-yl]phenyl]phenyl]-2-methoxy-3-pyridyl]methylamino]methyl]pyrrolidin-2-one] | 7.07
19 | COc1nc(-c2cccc(-c3cccc(-c4ccn5cc(CNC[C@@H]6CCC(=O)N6)nc5c4)c3Cl)c2Cl)ccc1CNC[C@@H]1CCC(=O)N1 [Example 357, (5S)-5-[[[6-[2-Chloro-3-[2-chloro-3-[2-[[[(2S)-5-oxopyrrolidin-2-yl]methylamino]methyl]imidazo[1,2-a]pyridin-7-yl]phenyl]phenyl]-2-methoxy-3-pyridyl]methylamino]methyl]pyrrolidin-2-one] | 7.30
20 | COC(=O)C1(CNCc2cnc3cc(-c4cccc(-c5cccc(-c6ccc(CNC[C@@H]7CCC(=O)N7)c(OC)n6)c5Cl)c4Cl)ccn3c2=O)COC1 [Example 358, methyl (S)-3-((((8-(2,2′-dichloro-3′-(6-methoxy-5-((((5-oxopyrrolidin-2-yl)-methyl)-amino)-methyl)-pyridin-2-yl)-[1,1′-biphenyl]-3-yl)-4-oxo-4H-pyrido[1,2-a]pyrimidin-3-yl)-methyl)-amino)-methyl)oxetane-3-carboxylate] | 10.00
21 | COc1nc(-c2cccc(-c3cccc(-c4ccn5c(=O)c(CNCC6NC(=O)CC6(C)C)cnc5c4)c3Cl)c2Cl)ccc1CNC[C@@H]1CCC(=O)N1 (stereo partly drawn) [Example 359, 8-(2,2′-dichloro-3′-(6-methoxy-5-(((((S)-5-oxopyrrolidin-2-yl)methyl)-amino)-methyl)-pyridin-2-yl)-[1,1′-biphenyl]-3-yl)-3-((((3,3-dimethyl-5-oxopyrrolidin-2-yl)methyl)amino)methyl)-4H-pyrido[1,2-a]pyrimidin-4-one] | 7.17
